Measurements: patent US5412095A, “Terazosin monohydrochloride and processes and intermediate for its production” (Abbott Laboratories, priority 1994, dated 1995)
Counter-ions that a name gives are not always drawn. Like-named read-outs stand apart in the source and are kept apart here.

Columns and labels:
[1] = Solubility/dissolution of forms of terazosin monohydrochloride in distilled water (shaken, 0.45 µm filtered, UV at 254 nm); format: physicochemical; conditions: for solubility at 0.5 min / solubility at 1 min / solubility at 2 min / solubility at 4 min / Solubility of Various Forms of Terazosin Monohydrochloride: distilled water, 2 g in 5 mL; for solubility at 0.5 min / solubility at 1 min / solubility at 2 min / solubility at 4 min: read-out: Solubility of Various Forms of Terazosin Monohydrochloride; for dissolution in water (in words): qualitative
Method: The data in Table 1 were collected, for each data point, by weighing 2 g samples of terazosin monohydrochloride dihydrate and each of Forms I, II and II of the non-solvated monohydrochloride separately into 50 mL centrifuge tubes. Five mL of distilled water were added to each tube and the tubes shaken for the times indicated and then rapidly filtered through a 0.45 μu nylon membrane filter. The resulting flitrates were serially diluted with water 2 to […], 5 to 50, 5 to 50 and 5 to 100 mL and the ultraviolet absorption maximum at 254 nm measured. The concentrations of the dissolved terazosin were then calculated from the absorption data using dam from a series of standard concentrations.

[2] = Acidic cleavage of terazosin in aqueous acid; format: physicochemical; conditions: aqueous medium, cleaves into 4-amino-6,7-dimethoxy-2-piperazinylquinazoline and 2-furoic acid
Method: In the particular case of terazosin, when the parent compound or its hydrochloride salt is in contact for extended periods with aqueous acid, it undergoes an undesirable side reaction which cleaves the compound into its constituent parts: [drawing 2]
Moreover, if the hydrochloride salt is prepared by lyophilization of the reaction mixture of terazosin free base and hydrochloric acid, unless care is taken to remove any excess acid present in the isolated salt, the solid may also contain small amounts of acid which causes degradative cleavage over time.

[3] = free base form; cited from earlier work

`COc1cc2nc(N3CCN(C(=O)C4CCCO4)CC3)nc(N)c2cc1OC.Cl.O.O` (stereo not shown) [Dihydrate, 1-(4-Amino-6,7-dimethoxy-2-quinazolinyl)-4-(tetrahydro-2-furoyl)piperazine monohydrochloride dihydrate] showed a solubility at 0.5 min ([1]; 0.5 minutes) of 29 mg/mL, a solubility at 1 min ([1]; 1 minute) of 30 mg/mL and a solubility at 2 min ([1]; 2 minutes) of 27 mg/mL. It also gave a solubility at 4 min ([1]; 4 minutes) of 26 mg/mL and a solubility ([1]; water, rapidly reached, read-out: limit of solubility) of about 30 mg/mL.

For `COc1cc2nc(N3CCN(C(=O)C4CCCO4)CC3)nc(N)c2cc1OC` (stereo not shown) [terazosin, 1-(4-amino-6,7-dimethoxy-2-quinazolinyl)-4-(tetrahydro-2furoyl)piperazine], the “acidic cleavage (stability)” value [2] is listed as “occurs rapidly in aqueous medium” and the “solubility for oral administration (in words)” value [3] is listed as “does not possess the requisite solubility for convenient oral administration”.

`COc1cc2nc(N3CCN(C(=O)C4CCCO4)CC3)nc(N)c2cc1OC` (stereo not shown) [Form I, 1-(4-amino-6,7-dimethoxy-2-quinazolinyl)-4-(tetrahydro-2-furoyl)piperazinemonohydrochloride] showed a solubility at 0.5 min ([1]; water, 0.5 minutes) of 273 mg/mL, a solubility at 1 min ([1]; water, 1 minute) of 283 mg/mL and a solubility at 2 min ([1]; water, 2 minutes) of 289 mg/mL. The solubility at 4 min ([1]; water, 4 minutes) was 276 mg/mL.

With `COc1cc2nc(N3CCN(C(=O)C4CCCO4)CC3)nc(N)c2cc1OC` (stereo not shown) [Form III, 1-(4-amino-6,7-dimethoxy-2-quinazolinyl)-4-(tetrahydro-2-furoyl)piperazinemonohydrochloride] the “Solubility of Various Forms of Terazosin Monohydrochloride” value ([1]; 0.5 minutes) was 235 mg/mL, the “Solubility of Various Forms of Terazosin Monohydrochloride” value ([1]; 1 minute, 1 min) was 237 mg/mL and the “Solubility of Various Forms of Terazosin Monohydrochloride” value ([1]; 2 minutes) was 269 mg/mL. For the same compound, the “Solubility of Various Forms of Terazosin Monohydrochloride” value ([1]; 4 minutes) was 261 mg/mL, the “solubility rapidly achieved relative to the dihydrate limit (about 30 mg/mL)” value ([1]; water, multiple of dihydrate solubility) was “about ten times” and the “dissolution in water (in words)” value ([1]; water) was “rapidly dissolves in water”. The “dissolution in water (in words)” value ([1]; water, listed as terazosin monohydrochloride Form III) was “dissolves in water much more rapidly than the dihydrate form”.

For `COc1cc2nc(N3CCN(C(=O)C4CCCO4)CC3)nc(N)c2cc1OC` (stereo not shown) [Form II, 1-(4-amino-6,7-dimethoxy-2-quinazolinyl)-4-(tetrahydro-2-furoyl)piperazinemonohydrochloride], the “Solubility of Various Forms of Terazosin Monohydrochloride” value ([1]; 0.5 minutes) was 280 mg/mL, the “Solubility of Various Forms of Terazosin Monohydrochloride” value ([1]; 1 minute, 1 min) was 253 mg/mL and the “Solubility of Various Forms of Terazosin Monohydrochloride” value ([1]; 2 minutes) was 311 mg/mL. The “Solubility of Various Forms of Terazosin Monohydrochloride” value ([1]; 4 minutes) was 323 mg/mL.
